Patent publication US10899733B2, “Inhibitors of PARPs that catalyze mono-ADP-ribosylation” (OREGON HEALTH & SCIENCE UNIVERSITY, priority 2017, dated 2021)
Read-outs that look alike come from different tables or passages of the source.

Key:
PARP11 = target: T1, PARP11 (Homo sapiens, UniProt Q9NR21); assay: Inhibition of PARP11-mediated ADP-ribosylation of SRPK2 using NAD+ (100 μM); assay type: biochemical; settings: ADP-ribosylation of SRPK2, NAD+ 100 μM
T1 sequence (Q9NR21 1-338): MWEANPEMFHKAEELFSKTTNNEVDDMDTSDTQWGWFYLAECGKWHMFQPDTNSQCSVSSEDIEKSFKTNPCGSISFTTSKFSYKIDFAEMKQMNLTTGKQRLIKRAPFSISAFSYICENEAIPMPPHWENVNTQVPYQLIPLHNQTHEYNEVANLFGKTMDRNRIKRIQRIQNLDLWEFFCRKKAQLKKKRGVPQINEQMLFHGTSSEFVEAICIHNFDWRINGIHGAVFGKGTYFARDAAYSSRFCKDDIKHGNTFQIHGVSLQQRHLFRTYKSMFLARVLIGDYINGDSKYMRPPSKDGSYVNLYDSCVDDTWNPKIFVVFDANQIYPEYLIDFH

PARP10 = target: T2, PARP10 (Homo sapiens, UniProt Q53GL7); assay: PARP10-dependent ADP-ribosylation in HEK293T cells expressing GFP-PARP10, Western blot with ADP-ribose binding reagent; assay type: cell-based; settings: for EC50: GFP-PARP10, 22 at 1-100 μM for 3 h
T2 construct: Human embryonic kidney (HEK) 293T cells expressing full-length PARP10; expressed in transfected cells; host or cells: HEK293T
T2 sequence (Q53GL7 1-1025): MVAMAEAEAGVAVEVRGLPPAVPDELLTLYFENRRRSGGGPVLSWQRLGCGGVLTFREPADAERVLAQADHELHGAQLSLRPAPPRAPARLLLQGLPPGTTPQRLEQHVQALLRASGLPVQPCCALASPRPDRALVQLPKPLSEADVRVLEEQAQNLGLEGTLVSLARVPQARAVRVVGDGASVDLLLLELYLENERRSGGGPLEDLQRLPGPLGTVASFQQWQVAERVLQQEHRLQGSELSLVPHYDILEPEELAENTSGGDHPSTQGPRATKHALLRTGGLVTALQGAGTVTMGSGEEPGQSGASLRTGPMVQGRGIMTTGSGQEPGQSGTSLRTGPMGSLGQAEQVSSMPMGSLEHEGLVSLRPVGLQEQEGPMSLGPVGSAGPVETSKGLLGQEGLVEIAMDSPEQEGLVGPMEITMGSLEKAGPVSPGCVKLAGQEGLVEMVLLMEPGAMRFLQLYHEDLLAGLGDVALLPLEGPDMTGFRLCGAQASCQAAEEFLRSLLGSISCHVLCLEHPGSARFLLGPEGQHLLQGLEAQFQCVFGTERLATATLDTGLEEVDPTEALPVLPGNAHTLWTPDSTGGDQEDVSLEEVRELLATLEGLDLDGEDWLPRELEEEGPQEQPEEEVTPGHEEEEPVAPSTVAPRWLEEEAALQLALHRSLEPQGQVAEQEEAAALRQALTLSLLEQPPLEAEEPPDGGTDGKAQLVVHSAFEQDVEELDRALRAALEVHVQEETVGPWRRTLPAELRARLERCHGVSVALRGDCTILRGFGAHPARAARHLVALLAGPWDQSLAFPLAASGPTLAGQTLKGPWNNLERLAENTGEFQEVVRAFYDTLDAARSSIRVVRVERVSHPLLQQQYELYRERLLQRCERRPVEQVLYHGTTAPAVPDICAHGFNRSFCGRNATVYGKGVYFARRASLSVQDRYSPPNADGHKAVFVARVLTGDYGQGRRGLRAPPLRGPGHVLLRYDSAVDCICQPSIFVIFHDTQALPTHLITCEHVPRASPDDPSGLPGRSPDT
Procedure: We next determined if 22 could inhibit PARP10-dependent ADP-ribosylation in cells. […] Med. Chem. Lett. 25, pp. 4770-4773} Human embryonic kidney (HEK) 293T cells expressing full-length PARP10 were treated with increasing concentrations of 22 (1-100 μM). […] The EC50 value varies depending on the species quantified.
HEK293T cells were transfected with GFP-PARP10 and incubated with increasing concentrations of 22 (1-100 μM) for 3 h. Lysates were prepared and auto-ADP-ribosylation of PARP10 and its high molecular weight (HMW) targets were analyzed with an ADP-ribose binding reagent (α-APDr) (FIG. 2B) Quantification of data shown in FIG. 2(a).

## Cc1c(-c2ccnc(C(F)(F)F)c2)ccc2c1CCNC2=O [Compound 22, 5-methyl-6-(2-(trifluoromethyl)pyridin-4-yl)-3,4-dihydroisoquinolin-1(2H)-one]
PARP11
  IC50: 51.7 µM
  PARP11 pIC50 ± S.E.M.: 4.29 ± 0.04
PARP10; 1-100 μM
  inhibition of auto-ADP-ribosylation of PARP10 and PARP10-labeled targets in cells: dose-dependent manner
PARP10; read-out: EC50, PARP10 itself (auto-ADP-ribosylation)
  EC50: 11 µM
PARP10; read-out: EC50, PARP10 targets (HMW species)
  EC50: 2.3 µM
